According to patent US4088778A, “Method for the treatment of hypertension” (priority 1975, dated 1978):

Legend:
[1] = Teratogenetic property test; assay type: in vivo, pregnant mice or pregnant rats; settings: orally, 100 to 1200 mg/Kg
Description: (C) Teratogenetic Property Test:

[2] = Clinical Test I, double blind: subjective symptoms; assay type: in vivo, human patients; settings: for Stiffness in Shoulders: Improvement ratio: P group 45.2
Procedure: 94 patients of hypertension or arteriosclerosis having subjective symptoms were tested, and some of them suffered from complications such as ischemia heart disease, hypertensive heart disease and encephalomalacia.
As the active drug, there were employed hard capsules, each containing 100 mg of TN.
Two capsules were orally administered at one time, and the administration was conducted three times a day after eating. The period of the administration was principally 4 weeks or 6 weeks. During this period, the administration was performed continuously. Combined administration of drugs having the same function as that of TN (vitamin E drugs, nicotinic acid, its derivatives and peripheral vasolidators) was prohibited. Drugs which had been continuously administered since before the start of the administration of TN were similarly administered according to the disease case and symptom, and change of the prescription during the test was avoided.
In the above Table, the "Improved" means that the symptom was improved by at least one grade as compared with the symptom before the administration,and each number denotes the total number of the patients in whom the symptom was thus improved.
*The patients were divided into two groups, one in which the symptom was
improved by at least 2 grades (the sum of the patients in which the
symptoms were improved by 2, 3 and 4 grades) and the other in which the
symptom was improved by one grade, unchanged or worsened. The assay was
conducted on these two groups. (In other cases, the patients were divided
into two groups, one in which the symptom was improved by one grade and
the other in which the symptom was unchanged or worsened, and the assay
was made on these two groups.)
according to Fischer direct probability calculation method.

[3] = number of patients, total 3 (Table 9)
[4] = number of patients, total 7 (Table 9)
[5] = number of patients, total 8 (Table 9)
[6] = number of patients, total 9 (Table 9)
[7] = number of patients, total 9 (Table 10)
[8] = number of patients, total 11 (Table 9)
[9] = number of patients, total 13 (Table 9)
[10] = number of patients, total 14 (Table 9)
[11] = number of patients, total 15 (Table 9)
[12] = number of patients, total 16 (Table 9)
[13] = number of patients, total 16 (Table 10)
[14] = number of patients, total 17 (Table 9)
[15] = number of patients, total 18 (Table 9)
[16] = number of patients, total 18 (Table 10)
[17] = number of patients, total 23 (Table 9)
[18] = number of patients, total 23 (Table 10)
[19] = number of patients, total 25 (Table 9)
[20] = number of patients, total 25 (Table 10)
[21] = number of patients, total 26 (Table 9)
[22] = number of patients, total 26 (Table 10)
[23] = number of patients, total 28 (Table 9)
[24] = number of patients, total 28 (Table 10)
[25] = number of patients, total 30 (Table 9)
[26] = number of patients, total 51 (Table 10)

SMILES: Cc1c(C)c2c(c(C)c1OC(=O)c1cccnc1)CCC(C)(CCCC(C)CCCC(C)CCCC(C)C)O2 (racemic) [TN, dl-α-tocopheryl nicotinate]
- influences on mother animals, embryos and newborn babies [1]: no influences were observed
- teratogenetic property [1]: no teratogenetic property
- Forgetfulness: Improvement Ratio ([2]; Table 9, P group 21.7): 38.9%
- Virtigo: Improvement Ratio ([2]; Table 9, P group 37.5): 66.7%
- Pains on Waist and Back: Improvement Ratio ([2]; Table 9, P group 40.0): 64.7%
- Syncope: Improvement Ratio ([2]; Table 9, P group 40.0): 75.0%
- Chill on Limbs: Improvement Ratio ([2]; Table 9, P group 41.2): 35.7%
- Stiffness in Nape: Improvement ratio ([2]; Table 9, P group 43.8): 68.0%
- Stiffness in Shoulders: Improvement ratio ([2]; Table 9): 65.4%
- Insomnia: Improvement ratio ([2]; Table 9, P group 47.4): 83.3%
- Dizzy Feeling: Improvement ratio ([2]; Table 9, P group 50.0): 81.3%
- Irritation: Improvement Ratio ([2]; Table 9, P group 50.0): 66.7%
- Rush of Blood: Improvement Ratio ([2]; Table 9, P group 50.0): 69.2%
- Tinnitus: Improvement Ratio ([2]; Table 9, P group 52.6): 50.0%
- Palsy in Limbs: Improvement ratio ([2]; Table 9, P group 53.8): 82.6%
- Short Breath: Improvement Ratio ([2]; Table 9, P group 53.8): 42.9%
- Heaviness in Head: Improvement Ratio ([2]; Table 9, P group 62.5): 82.1%
- Oppression on Breast: Improvement Ratio ([2]; Table 9, P group 63.6): 62.5%
- Warmness: Improvement Ratio ([2]; Table 9, P group 66.7): 77.8%
- Languor: Improvement Ratio ([2]; Table 9, P group 70.6): 60.0%
- Palpitation: Improvement Ratio ([2]; Table 9, P group 76.9): 72.7%
- Depression: Improvement Ratio ([2]; Table 9, P group 77.8): 42.9%
- Headache: Improvement ratio ([2]; Table 9, P group 78.6): 83.3%
- Pain on Breast: Improvement Ratio ([2]; Table 9, P group 100.0): 71.4%
- Vertigo: Improvement ratio ([2]; Table 10, P group 37.5): 66.7%
- Stiffness in Nape: Improvement ratio ([2]; Table 10, P group 43.8, chi0^2 = 3.3270, P < 0.10): 68.0%
- Stiffness in Shoulders and Nape: Improvement ratio ([2]; Table 10, P group 44.4, chi0^2 = 5.6104, P < 0.025): 66.7%
- Stiffness in Shoulders: Improvement ratio ([2]; Table 10): 65.4%
- Vertigo plus Dizzy Feeling: Improvement ratio ([2]; Table 10, P group 46.4, chi0^2 = 8.3955, P < 0.005): 73.1%
- Insomnia: Improvement ratio ([2]; Table 10, P group 47.4, P = 0.0247): 83.3%
- Dizzy Feeling: Improvement ratio ([2]; Table 10, P group 50.0, chi0^2 = 7.4243, P < 0.01): 81.3%
- Palsy in Limbs: Improvement ratio ([2]; Table 10, P group 53.8, P = 0.0318): 82.6%
- Headache: Improvement ratio ([2]; Table 10, P group 62.5, chi0^2 = 3.1277, P < 0.10): 82.1%
- relief of headache, vertigo, dizzy feeling, syncope, stiffness in the shoulders, stiffness in the nape, palsy in limbs, insomnia and pains on the waist and the back ([2]; human, in vivo): excellent effects were attained
- Irritation: Improved [2, 3]: 2
- Irritation: Unchanged or Worsened [2, 3]: 1
- Depression: Improved [2, 4]: 3
- Depression: Unchanged or Worsened [2, 4]: 4
- Pain on Breast: Improved [2, 4]: 5
- Pain on Breast: Unchanged or Worsened [2, 4]: 2
- Short Breath: Improved [2, 4]: 3
- Short Breath: Unchanged or Worsened [2, 4]: 4
- Oppression on Breast: Improved [2, 5]: 5
- Oppression on Breast: Unchanged or Worsened [2, 5]: 3
- Syncope: Improved [2, 5]: 6
- Syncope: Unchanged or Worsened [2, 5]: 2
- Virtigo: Improved [2, 6]: 6
- Virtigo: Unchanged or Worsened [2, 6]: 3
- Warmness: Improved [2, 6]: 7
- Warmness: Unchanged or Worsened [2, 6]: 2
- Vertigo: Improved by 1 grade [2, 7]: 1
- Vertigo: Improved by 2 grades [2, 7]: 3
- Vertigo: Improved by 3 grades [2, 7]: 1
- Vertigo: Improved by 4 grades [2, 7]: 1
- Vertigo: Not Changed [2, 7]: 2
- Vertigo: Worsened by 1 grade [2, 7]: 1
- Vertigo: Worsened by 2 grades [2, 7]: 0
- Palpitation: Improved [2, 8]: 8
- Palpitation: Unchanged or Worsened [2, 8]: 3
- Rush of Blood: Improved [2, 9]: 9
- Rush of Blood: Unchanged or Worsened [2, 9]: 4
- Chill on Limbs: Improved [2, 10]: 5
- Chill on Limbs: Unchanged or Worsened [2, 10]: 9
- Languor: Improved [2, 11]: 9
- Languor: Unchanged or Worsened [2, 11]: 6
- Dizzy Feeling: Improved [2, 12]: 13
- Dizzy Feeling: Unchanged or Worsened [2, 12]: 3
- Tinnitus: Improved [2, 12]: 8
- Tinnitus: Unchanged or Worsened [2, 12]: 8
- Dizzy Feeling: Improved by 1 grade [2, 13]: 0
- Dizzy Feeling: Improved by 2 grades [2, 13]: 11
- Dizzy Feeling: Improved by 3 grades [2, 13]: 1
- Dizzy Feeling: Improved by 4 grades [2, 13]: 1
- Dizzy Feeling: Not Changed [2, 13]: 2
- Dizzy Feeling: Worsened by 1 grade [2, 13]: 1
- Dizzy Feeling: Worsened by 2 grades [2, 13]: 0
- Pains on Waist and Back: Improved [2, 14]: 11
- Pains on Waist and Back: Unchanged or Worsened [2, 14]: 6
- Forgetfulness: Improved [2, 15]: 7
- Forgetfulness: Unchanged or Worsened [2, 15]: 11
- Insomnia: Improved [2, 15]: 15
- Insomnia: Unchanged or Worsened [2, 15]: 3
- Insomnia: Improved by 1 grade [2, 16]: 7
- Insomnia: Improved by 2 grades [2, 16]: 7
- Insomnia: Improved by 3 grades [2, 16]: 0
- Insomnia: Improved by 4 grades [2, 16]: 1
- Insomnia: Not Changed [2, 16]: 2
- Insomnia: Worsened by 1 grade [2, 16]: 1
- Insomnia: Worsened by 2 grades [2, 16]: 0
- Palsy in Limbs: Improved [2, 17]: 19
- Palsy in Limbs: Unchanged or Worsened [2, 17]: 4
- Palsy in Limbs: Improved by 1 grade [2, 18]: 11
- Palsy in Limbs: Improved by 2 grades [2, 18]: 7
- Palsy in Limbs: Improved by 3 grades [2, 18]: 1
- Palsy in Limbs: Improved by 4 grades [2, 18]: 0
- Palsy in Limbs: Not Changed [2, 18]: 4
- Palsy in Limbs: Worsened by 1 grade [2, 18]: 0
- Palsy in Limbs: Worsened by 2 grades [2, 18]: 0
- Stiffness in Nape: Improved [2, 19]: 17
- Stiffness in Nape: Unchanged or Worsened [2, 19]: 8
- Stiffness in Nape: Improved by 1 grade [2, 20]: 11
- Stiffness in Nape: Improved by 2 grades [2, 20]: 5
- Stiffness in Nape: Improved by 3 grades [2, 20]: 1
- Stiffness in Nape: Improved by 4 grades [2, 20]: 0
- Stiffness in Nape: Not Changed [2, 20]: 5
- Stiffness in Nape: Worsened by 1 grade [2, 20]: 2
- Stiffness in Nape: Worsened by 2 grades [2, 20]: 1
- Vertigo plus Dizzy Feeling: Improved by 1 grade [2, 20]: 1
- Vertigo plus Dizzy Feeling: Improved by 2 grades [2, 20]: 14
- Vertigo plus Dizzy Feeling: Improved by 3 grades [2, 20]: 2
- Vertigo plus Dizzy Feeling: Improved by 4 grades [2, 20]: 2
- Vertigo plus Dizzy Feeling: Not Changed [2, 20]: 4
- Vertigo plus Dizzy Feeling: Worsened by 1 grade [2, 20]: 2
- Vertigo plus Dizzy Feeling: Worsened by 2 grades [2, 20]: 0
- Stiffness in Shoulders: Improved [2, 21]: 17
- Stiffness in Shoulders: Unchanged or Worsened [2, 21]: 9
- Stiffness in Shoulders: Improved by 1 grade [2, 22]: 10
- Stiffness in Shoulders: Improved by 2 grades [2, 22]: 5
- Stiffness in Shoulders: Improved by 3 grades [2, 22]: 0
- Stiffness in Shoulders: Improved by 4 grades [2, 22]: 2
- Stiffness in Shoulders: Not Changed [2, 22]: 8
- Stiffness in Shoulders: Worsened by 1 grade [2, 22]: 1
- Stiffness in Shoulders: Worsened by 2 grades [2, 22]: 0
- Heaviness in Head: Improved [2, 23]: 23
- Heaviness in Head: Unchanged or Worsened [2, 23]: 5
- Headache: Improved by 1 grade [2, 24]: 7
- Headache: Improved by 2 grades [2, 24]: 12
- Headache: Improved by 3 grades [2, 24]: 4
- Headache: Improved by 4 grades [2, 24]: 0
- Headache: Not Changed [2, 24]: 4
- Headache: Worsened by 1 grade [2, 24]: 1
- Headache: Worsened by 2 grades [2, 24]: 0
- Headache: Improved [2, 25]: 25
- Headache: Unchanged or Worsened [2, 25]: 5
- Stiffness in Shoulders and Nape: Improved by 1 grade [2, 26]: 13
- Stiffness in Shoulders and Nape: Improved by 2 grades [2, 26]: 21
- Stiffness in Shoulders and Nape: Improved by 3 grades [2, 26]: 1
- Stiffness in Shoulders and Nape: Improved by 4 grades [2, 26]: 2
- Stiffness in Shoulders and Nape: Not Changed [2, 26]: 3
- Stiffness in Shoulders and Nape: Worsened by 1 grade [2, 26]: 1
- Stiffness in Shoulders and Nape: Worsened by 2 grades [2, 26]: 0
